Source: a melting point compilation (Tetko et al.; mined from patent text by program, amines drawn as free bases though some values may be those of a salt)

Work on `CCn1ncc(C(=O)c2ccc(S(C)(=O)=O)c(N3CCOC(O)C3)c2Cl)c1O` (configuration not stated) yielded a melting point of 209 to 210 °C. Work on `CCCc1c(OCCCOc2cccc3c2CCCC3)ccc2c1OC(CCC=O)(CCC=O)CC2=O` yielded a melting point of 107 to 108 °C. `COc1cc(NS(=O)(=O)c2ccc(Cl)cc2)c(C(=O)Nc2ccc(S(=O)(=O)N3CCSCC3)cc2)cc1OC` showed a melting point of 216 to 219 °C. For `CC1(N2C(=O)c3ccc(CNC(=O)c4ccc(S(C)(=O)=O)cc4)cc3C2=O)CCC(=O)NC1=O` (configuration not stated), the melting point was 166 to 168 °C. `c1ccc2c(c1)nc(N1CCOCC1)c1c(-c3noc(C4CC4)n3)ncn12` gave a melting point of 169 to 173 °C. `OC[C@@H](COc1ccccc1)OC1CCCCO1` (some centres not stated) showed a melting point of 39 to 41 °C. `Clc1ccc2nc(-c3ccsc3)c(I)n2n1` gave a melting point of 203 to 206 °C. `CCCCCCCCCCCCCCCCS(=O)(=O)NCCc1ccc(OCC(=O)O)cc1` gave a melting point of 138 °C. `CC(C)(C)OC(=O)NCc1cccc(OCCC2Oc3ccccc3N(Cc3ccccc3Cl)C2=O)c1` (configuration not stated) gave a melting point of 115 to 116 °C. Compound `CCN(CC)c1ccc(C2(c3ccc(N(C)C)cc3N(C)C)OC(=O)c3ccccc32)cc1` (configuration not stated) has a melting point of 168 to 170 °C. In the case of `CC(CC#N)CN1C(=O)c2ccccc2S1(=O)=O` (configuration not stated), the melting point is reported as 83 to 84 °C. `CCOC(=O)c1csc(Cc2ccccc2)n1` gave a melting point of 78 to 79 °C. Work on `COc1cc(OCC(=O)N(C)C)c(/C=C/C(=O)c2ccc(C(=O)O)cc2)cc1-c1cccs1` yielded a melting point of 197 to 198 °C. Work on `COC(=O)c1ccccc1Oc1ccccc1[N+](=O)[O-]` yielded a melting point of 49 to 50 °C. Compound `COc1cccc(Cc2ccc3[nH]c4cnn(C)c4c(=O)c3c2)c1` has a melting point of 246 to 250 °C. Work on `COc1ccnc(CCc2nc3cc(-c4ccc(S(=O)(=O)N5CCNC(=O)CC5)cc4)cnc3[nH]2)c1` yielded a melting point of 230 to 232 °C. With `CCOC(=O)c1cn(C2CC2)c2c(C#N)c(Cl)c(F)cc2c1=O` the melting point was 162 to 165 °C. Work on `CC(O)(c1ccc(F)cc1)C1CCN(CC2CC(c3ccc4[nH]c(=O)oc4c3)=NO2)CC1` (configuration not stated) yielded a melting point of 125 to 134 °C. `Cc1ccc(NC(=O)C(C)C)o1` gave a melting point of 78 °C. With `O=C(CCCc1ccccc1)N[C@H](Cc1ccc(F)cc1)[C@@H](O)c1ccc(F)cc1` (racemic) the melting point was 147 to 148 °C. Compound `COc1cc(COc2cc3ncnc(Nc4ccc(Cl)cc4F)c3cc2OC)ccn1` has a melting point of 202 to 204 °C. `CN1Cc2c(-c3nc(C4CC4)no3)ncn2-c2ccccc2C1=O` gave a melting point of 202 to 203 °C. In the case of `CC(C)c1ccc(C(Cl)=NO)cc1`, the melting point is reported as 61 to 63 °C. For `COc1ccc2nc3c(C)ccc([N+](=O)[O-])c3c(Cl)c2c1`, the melting point was 227 to 228 °C. Compound `BrCc1cc(I)cc(I)c1I` has a melting point of 120 to 121 °C. Work on `CCOC(=O)Cn1ncc(-c2ccccc2)c1-c1ccc(N(C)C)cc1` yielded a melting point of 99 to 101 °C. In the case of `CC(C)(C)C(O)C(=Cc1ccc2ccccc2c1)n1cncn1` (configuration not stated), the melting point is reported as 122 to 124 °C. Compound `CC1CCN(C2=NCC(=O)N(C)c3ccccc32)CC1` has a melting point of 106 to 108 °C. Work on `O=C1N(c2ccc(Cl)cc2)c2ncccc2C1(Cc1ccncc1)Cc1ccccn1` (configuration not stated) yielded a melting point of 193 to 195 °C. In the case of `COC(=O)C(Cl)=NNc1ccc(Cl)cc1`, the melting point is reported as 149 to 150 °C. For `CCCCc1oc2ccc(C(=O)OC)cc2c1C(=O)c1ccc(O)cc1`, the melting point was 152 to 153 °C. In the case of `O=[N+]([O-])c1cc(Cl)cc2cccnc12`, the melting point is reported as 149 to 155 °C. With `N=C(NCc1cnc(Cl)s1)N[N+](=O)[O-]` the melting point was 160 to 162 °C. For `Cc1sc(C(=O)O)cc1NC(=O)NCc1ccccc1`, the melting point was 259 to 260 °C. With `O=C(O)C1=Cc2ccc(OCc3ccccc3)cc2CC1` the melting point was 202 to 205 °C. Compound `COc1ccnc2c1cc(C)n2Cc1ccccc1` has a melting point of 129 to 131 °C. With `Cc1cc(C)c2nc(Nc3ccc(CN)cc3)n(Cc3nc(C)ccc3O)c2c1` the melting point was 255 °C. For `Cn1nnnc1-c1cccc(CCl)c1`, the melting point was 63 to 65 °C. With `CCCCc1nc2c(N)nc3ccccc3c2n1CCCNC(=O)N1CCOCC1` the melting point was 193 to 195 °C. In the case of `CS(=O)(=O)Nc1cc(C=C2c3ccccc3CCc3ccccc32)ccc1O`, the melting point is reported as 123 °C. Work on `CCCOc1ccc2c(c1)C(c1ccc(OC)cc1-c1cccc(C(=O)O)c1)C(C(=O)O)C2c1ccc2c(c1)OCO2` (configuration not stated) yielded a melting point of 257 to 268 °C. Work on `O=C1CCC(CO)N1C(=O)Nc1ccccc1` (configuration not stated) yielded a melting point of 99 to 101 °C. `COc1ccccc1-c1cn(N=Cc2ccccc2)c(N)n1` gave a melting point of 166 to 167 °C. `CC(=O)Nc1ccc(CCC(=O)O)cc1` showed a melting point of 127 to 138 °C. `COc1ccc(-c2nc(CCCCCC(C#N)C(=O)O)oc2-c2ccc(OC)cc2)cc1` (configuration not stated) gave a melting point of 150 °C. `Oc1ccccc1-c1cc(-c2ccc3c(c2)OCO3)cc(-c2ccsc2)n1` showed a melting point of 120 to 121 °C. `COc1cc(O)c2c(=O)cc(C(=O)Nc3ccc(CC4SC(=O)NC4=O)cc3)oc2c1` (configuration not stated) gave a melting point of 255 to 256 °C. `COC(CCC(C)C1CCC2C3C(OC(C)=O)CC4CC(OC(C)=O)CCC4(C)C3CC(=O)C12C)=NNS(=O)(=O)c1ccc(C)cc1` (configuration not stated) gave a melting point of 146 to 147 °C. With `CN(CC(=O)O)C(=O)CCc1cccc(-c2nc(=O)c3ccccc3s2)n1` the melting point was 194 to 195 °C. With `COc1ccc(Cn2c(=O)ccc3cnc(Nc4ccccc4)nc32)cc1` the melting point was 215 to 216 °C. Compound `CCc1cc(=O)n2c3c(cc(C(O)(C(F)(F)F)C(F)(F)F)cc13)CCC2` has a melting point of 209 to 210 °C. `O=C(O)c1ccc2c(c1)N(C1CC1)CNS2(=O)=O` showed a melting point of 243 to 245 °C. `CC(SC1COC(c2ccc(C(=O)Nc3ccc(OC(F)(F)F)cc3)cc2)OC1)C(O)(Cn1cncn1)c1ccc(F)cc1F` (configuration not stated) gave a melting point of 180 °C. In the case of `[N-]=[N+]=NC(=O)c1cn(C2CCN(Cc3ccccc3)C2)nn1` (configuration not stated), the melting point is reported as 160 °C. `COc1ccc(C(=CC#N)c2cccc([N+](=O)[O-])c2)cc1OC` showed a melting point of 118 to 120 °C. Work on `Cc1nc2c(Cl)cc3nc(O)c(O)nc3c2nc1C` yielded a melting point of over 300 °C. `O=C(OCC1=CC(O)C2C=COC(OC3OC(CO)C(O)C(O)C3O)C12)c1ccc(O)cc1` (configuration not stated) gave a melting point of 148 to 150 °C. `O=c1[nH]c2c(Cl)cccc2s1` showed a melting point of 203 to 204 °C. In the case of `CC(C)(C)c1ccc(-c2cc3ccc(C(=O)O)cc3s2)cc1`, the melting point is reported as 318 °C. `COc1ccc(O)c2c(C)c(C)[nH]c12` showed a melting point of 164 °C. `COc1ccc(C(=O)Nc2ccccc2)cc1NC(=O)CC(=O)OCc1ccccc1` gave a melting point of 168 to 171 °C. In the case of `CCOC(=O)C1CCn2c(cc3ccccc32)C1OC(C)=O` (configuration not stated), the melting point is reported as 98 to 100 °C. With `CC(O)(C1CCC(Oc2ncnc3ccccc23)CC1)C(F)(F)F` (configuration not stated) the melting point was 159 to 160 °C. In the case of `COc1ccc(C2(C#Cc3cccc(-c4nc(C)no4)c3)CCCC(=O)C2)cc1OC1CCCC1` (configuration not stated), the melting point is reported as 122 to 123 °C. Work on `CN1Cc2c(C(N)=NO)ncn2-c2cccc(Br)c2C1=O` yielded a melting point of 265 to 266 °C. In the case of `Clc1ccc(C(=C2SCCCS2)C2CC2)cc1`, the melting point is reported as 91 to 95 °C. Work on `CCC(=O)OC1=CC(=O)CC(NC(=O)N(C)C)C1` (configuration not stated) yielded a melting point of 69 to 74 °C. In the case of `Cc1c(N2CC[C@@H](N)[C@H](C)C2)c(F)cc2c(=O)c(C(=O)O)cn(C3CC3)c12` (relative stereo), the melting point is reported as 223 to 225 °C. `Cc1cc2c(s1)N(C)c1ccccc1N=C2N1CCN(C)CC1` gave a melting point of 126 to 128 °C. In the case of `COC(=O)C1Cc2c([nH]c3ccccc23)CN1C(=S)Sc1cccs1` (configuration not stated), the melting point is reported as 150 to 152 °C. Compound `Cc1ccc(-c2cccs2)cc1C` has a melting point of 49 to 51 °C. Work on `Cc1ccc2c(c1)c1cc(-c3cccc(Br)c3)c(=O)n(C)c1n2C` yielded a melting point of 215 to 216 °C.
